“Also recorded” adds a separate entry of the source. Read-outs that look alike come from different tables or passages of the source. Numbered stars: 1 amine (or outer) side, 2 acyl side, 3 side chain; on linkers, the order of the positions; unused ones are H or OH. Square brackets hold non-standard residues; d marks the D form. Peptide text beside a SMILES is read from it. * marks the point of attachment. X1 = CC(N[*:1])C(=O)C(F)(F)C(=O)[*:2]; Boc = CC(C)(C)OC(=O)*
Assays:
SPP = test system: SPP; design: method as in PMID 15252014, PMID 19337374, PMID 12621027; details: cited from earlier work
hSPP = target: T1, hSPP (Homo sapiens, UniProt Q8TCT9); test: FBA/hSPP co-transfected HEK 293T cell cleavage assay (Aβ ELISA, Western blot, IP/MS); format: cell-based; details: for inhibition of xAβ1-25/K16A secretion (in words) / inhibition at 25 µM: 25 μM, ELISA; for inhibition of FBA cleavage by Western blot: Fig 3C lower panel; for IC50: HEK cells, 24 h, xAβ1-25/K16A by Aβ ELISA, mean ± standard error, read-out: IC50 on FBA/SPPL co-transfected cells; for inhibition at 25 µM: DMSO = 100%, read-out: inhibition of the SPP/SPPLs; for rank order of inhibition: number in parenthesis in Table 3
T1 construct: expressed in transfected cells; host or cells: HEK 293T
T1 sequence (Q8TCT9 1-377): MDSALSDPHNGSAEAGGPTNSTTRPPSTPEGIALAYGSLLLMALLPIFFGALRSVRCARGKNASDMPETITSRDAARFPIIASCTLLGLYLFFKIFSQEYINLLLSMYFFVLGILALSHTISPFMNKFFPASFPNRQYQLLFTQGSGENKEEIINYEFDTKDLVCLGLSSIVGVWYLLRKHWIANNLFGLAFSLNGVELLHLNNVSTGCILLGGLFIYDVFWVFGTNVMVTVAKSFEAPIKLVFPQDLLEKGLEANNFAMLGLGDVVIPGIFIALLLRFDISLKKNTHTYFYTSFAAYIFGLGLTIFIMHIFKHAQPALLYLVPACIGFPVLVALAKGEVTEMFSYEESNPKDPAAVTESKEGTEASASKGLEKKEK
Source text: (§1) Expression constructs in pcDNA6 for COOH-terminal FLAG (DYKDDDDK) and strep (WSHPQFEK) tagged SPPL2a, SPPL2b, hSPP and pSPP were generated as previously described. Untagged versions of all enzymes were also made and ligated into the pAG3 vector. Substrates (Fig 1) were designed as follows: FLAG-BRI2_1-81- Aβ1-25/K16A (FBA). The K16A mutation was incorporated to prevent potential α-secretase cleavage that would preclude ELISA based detection of the released COOH-terminal fragment. The substrate DNA was cloned into the expression vector pcDNA6. Constructs were confirmed by DNA sequencing. The overexpression of substrates was performed by transiently transfecting human embryonic kidney (HEK 293T) cells with or without SPP/SPPL vectors. Cells were grown in DMEM media supplemented with Hyclone 10% fetal bovine serum (GE, Logan, Utah, USA) and 1% penicillin/streptomycin (Life Technologies, Grand Island, NY, USA). Briefly, 2.7 μg DNA was applied to a 75% confluent 6 well plate (Corning, Tewksbury, MA, USA) using the polycation polyethylenimine (PEI) transfection method. Inhibitor testing experiments were conducted in 48 well plates with appropriately adjusted amounts of DNA and PEI and incubated 12–16 hours, after which the growth medium was replaced with fresh medium. DMSO (Sigma, St. Louis, MO, USA) and GSIs were added at the appropriate concentration. The GSIs, L685,458 and Compound W were purchased from Tocris (Tocris, Bristol, UK). (Z-LL)2 ketone, Compound E, DAPT, GSI II were purchased from Calbiochem (Merck Millipore, Billerica, MA, USA). LY-411,575 was synthesized by A. Fauq at the Mayo Clinic Chemical Core. Twenty-four hours later, the medium was collected for assay by ELISA and MS. A20 cells (TIB-208) (ATCC, Manassas, VA, USA) were cultured in RPMI-1640 medium (ATCC) supplied with 10% fetal bovine serum, 1% penicillin/streptomycin and 0.05 mM 2-mercaptoethanol (Life Technologies). At the density of 5x10^5 cells/ml, A20 cells were spun down at 1000 g for 2 min and resuspended in fresh medium supplied with DMSO or GSIs and incubated for 16 hr.
(§2) Sandwich ELISAs used for Aβ detection were performed as previously described. Briefly, Aβ and Aβ adducts with substrate TMD in conditioned media was captured with Ab5 antibody (human Aβ1–16 specific) and detected with horseradish peroxidase mAb 4G8 (Covance, Princeton, NJ, USA). Synthetic Aβ1–40 was used as standard. All ELISAs were developed with TMB substrate (KPL, Gaithersburg, Maryland, USA). Bis-Tris precast gels (Biorad, Hercules, CA, USA) were used for all SDS-PAGE. Monoclonal anti-FLAG M2 antibody (Sigma) and Aβ1–16 antibody 6E10 (Covance) were used for Western blotting. Antisera against SPPL2a, SPPL2b, hSPP and pSPP were generated as previously described and were used at dilution of 1:1000 for Western blotting. Anti-CD74 In-1 antibody (BD Bioscience, San Jose, CA, USA) was used for A20 cell lysate Western blotting at dilution of 1:1000.
(§3) Immunoprecipitation and mass spectrometry of xAβ1–25 in conditioned media were performed as previously described. In this study, 10 ml conditioned media were used for each experiment. ICDs were immunoprecipitated with anti-FLAG M2 magnetic beads. Cells from 10 cm dished treated with DMSO or 20 μM LY-411,575 were used for each test.

pSPP = pSPP (Plasmodium falciparum, UniProt Q8IKQ9); test: FBA/pSPP co-transfected HEK 293T cell cleavage assay (Aβ ELISA, Western blot, IP/MS); format: cell-based, human; details: for inhibition at 25 µM: read-out: inhibition of the SPP/SPPLs; for rank order of inhibition: number in parenthesis in Table 3
Source text: as §1, §2, §3

SPPL2a = test system: T2, SPPL2a; test: Endogenous CD74 NTF P8 turnover in non-overexpressing A20 cells (Western blot, In-1 antibody); format: cell-based, mouse; details: for stabilization of the CD74 8 kDa NTF P8: 25 μM, 16 hr; for dose response of P8 fragment stabilization (in words): different doses; for lowest concentration inhibiting P8 turnover: dose response
T2 construct: endogenous SPPL2a cleavage of CD74 in a murine B-Cell line; host or cells: A20 mouse B lymphocyte cells
Description: as §1, with “Untagged” for “Expression constructs in pcDNA6 for COOH-terminal FLAG (DYKDDDDK) and strep (WSHPQFEK) tagged SPPL2a, SPPL2b, hSPP and pSPP were generated as previously described. Untagged”
as §2

Chain of pSPP (Q8IKQ9 entry or part of it): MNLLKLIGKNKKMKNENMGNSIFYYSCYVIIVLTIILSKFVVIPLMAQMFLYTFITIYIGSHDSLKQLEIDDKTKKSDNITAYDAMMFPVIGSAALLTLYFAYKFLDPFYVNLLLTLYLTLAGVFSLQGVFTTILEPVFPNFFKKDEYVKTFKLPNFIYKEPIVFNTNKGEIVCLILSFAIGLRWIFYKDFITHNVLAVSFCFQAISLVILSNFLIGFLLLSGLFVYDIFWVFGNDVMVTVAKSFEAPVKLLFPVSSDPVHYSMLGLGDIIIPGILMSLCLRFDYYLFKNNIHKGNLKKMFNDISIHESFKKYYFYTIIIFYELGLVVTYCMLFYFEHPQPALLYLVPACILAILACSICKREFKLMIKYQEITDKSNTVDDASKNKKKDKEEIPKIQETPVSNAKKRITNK

| Structure (SMILES) | inhibition of SPP activity (SPP) | inhibition of xAβ1-25/K16A secretion (in words) (hSPP) | inhibition of FBA cleavage by Western blot (hSPP) | IC50 (hSPP) | inhibition at 25 µM (hSPP; HEK-293T) | rank order of inhibition (hSPP) | IC50 (pSPP) | inhibition of xAβ1-25/K16A secretion (in words) (pSPP; pSPP, 25 μM, ELISA) | rank order of inhibition (pSPP; pSPP) | stabilization of the CD74 8 kDa NTF P8 (SPPL2a) | dose response of P8 fragment stabilization (in words) (SPPL2a) | lowest concentration inhibiting P8 turnover (SPPL2a) | also measured |
| --- | --- | --- | --- | --- | --- | --- | --- | --- | --- | --- | --- | --- | --- |
| C[C@H](NC(=O)[C@@H](O)c1cc(F)cc(F)c1)C(=O)N[C@@H]1C(=O)N(C)c2ccccc2-c2ccccc21 [LY-411,575] | inhibit the activity of SPP | largely inhibited | efficiently inhibited | 0.15 ± 0.106 µM | > 90% | 1 | 3.48 ± 0.09 µM | largely inhibited | 4 | greatly stabilized | stabilized the P8 fragment in a dose dependent manner | 40 nM | cleavage products in conditioned media by IP/MS (hSPP; 20 μM): No major cleavage product was detected; inhibition at 25 µM (pSPP; HEK-293T): > 90%; cleavage products in conditioned media by IP/MS (pSPP; pSPP, 20 μM): No major cleavage product was detected |
| C[C@H](NC(=O)Cc1cc(F)cc(F)c1)C(=O)NC(C(=O)OC(C)(C)C)c1ccccc1 (some centres unmarked) [DAPT] | selectively inhibit PSENs, but not SPPs | does not inhibit | – | – | – | – | – | does not inhibit | – | no inhibition | – | – | – |
| CC(C)C[C@H](NC(=O)OCc1ccccc1)C(=O)N[C@@H](CC(C)C)C(=O)NCC(=O)CNC(=O)[C@H](CC(C)C)NC(=O)[C@H](CC(C)C)NC(=O)OCc1ccccc1 [(Z-LL)2 ketone] | – | largely inhibited | efficiently inhibited | 0.519 ± 0.097 µM | > 90% | 4 | 0.472 ± 0.114 µM | largely inhibited | 3 | greatly stabilized | stabilized the P8 fragment in a dose dependent manner | 40 nM | FBA cleavage by co-transfected SPPL (in words) (hSPP; 10 μM, Aβ ELISA, Fig 1D): largely inhibited; generation of the SPP/SPPL dependent 10 kDa ICD (hSPP; 10 μM, Western blot anti-FLAG M2): significantly reduced; inhibition at 10 µM (hSPP; HEK-293T, 10 μM, overnight, Aβ ELISA): > 75%; inhibition at 10 µM (pSPP; HEK-293T, pSPP, 10 μM, overnight, Aβ ELISA): > 75%; inhibition at 25 µM (pSPP; HEK-293T, pSPP, 25 μM, ELISA, DMSO = 100%): > 90%; FBA cleavage by co-transfected SPPL (in words) (pSPP; pSPP, 10 μM, Aβ ELISA, Fig 1D): largely inhibited; generation of the SPP/SPPL dependent 10 kDa ICD (pSPP; pSPP, 10 μM, Western blot anti-FLAG M2): significantly reduced |
| CC[C@H](C)[C@H](NC(=O)[C@@H](NC(=O)OC(C)(C)C)C(C)C)C(=O)NC(C)C(=O)C(F)(F)C(=O)N[C@H](C(=O)N[C@H](C(=O)OC)[C@@H](C)CC)C(C)C (some centres unmarked) [GSI II] (Boc-VI[X1]VI-OMe) | – | efficiently inhibited; also recorded: largely inhibited | efficiently inhibited | 0.423 ± 0.092 µM | – | 3 | 0.427 ± 0.1 µM | efficiently inhibited; also recorded: largely inhibited | 2 | greatly stabilized | stabilized the P8 fragment in a dose dependent manner | 40 nM | – |
| C[C@H](NC(=O)Cc1cc(F)cc(F)c1)C(=O)N[C@H]1N=C(c2ccccc2)c2ccccc2N(C)C1=O [Compound E] | – | inhibited; also recorded: selectively inhibit hSPP cleavage | efficiently inhibited | 1.47 ± 0.093 µM | – | – | – | did not show inhibition | – | did not show significant effects | – | – | inhibition of xAβ1-25/K16A secretion (in words) (hSPP; listed as Comp E): selectively inhibit hSPP |

From PMC4457840, “Differential Inhibition of Signal Peptide Peptidase Family Members by Established γ-Secretase Inhibitors” (PLoS ONE, 2015)
